According to PubChem BioAssay (NCI):
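Five compound concentrations were applied to cells in 96-well plates for 48 hours; endpoints were derived by simple linear interpolation of the resulting dose-response curve. TGI is the concentration that stops growth completely.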

Key:
Experiment in all cases: NCI-60 cell line screen, 48 h
[1] = system: UACC-62 melanoma
[2] = system: ACHN renal
[3] = system: NCI/ADR-RES ovarian
[4] = system: BT-549 breast
[5] = system: SF-268 CNS
[6] = system: MALME-3M melanoma
[7] = system: PC-3 prostate
[8] = system: HT29 colon
[9] = system: IGROV1 ovarian
[10] = system: HCC-2998 colon
[11] = system: MDA-MB-435
[12] = system: OVCAR-5 ovarian
[13] = system: HOP-62 NSCLC
[14] = system: TK-10 renal
[15] = system: T-47D breast
[16] = system: LOX IMVI melanoma
[17] = system: HCT-15 colon
[18] = system: SK-MEL-28 melanoma
[19] = system: SW-620 colon
[20] = system: U251 CNS
[21] = system: SK-MEL-5 melanoma
[22] = system: OVCAR-3 ovarian
[23] = system: M14 melanoma
[24] = system: 786-0 renal
[25] = system: NCI-H522 lung
[26] = system: DU-145 prostate
[27] = system: SF-539 CNS
[28] = system: HL-60(TB) leukemia
[29] = system: RPMI-8226 leukemia
[30] = system: COLO 205 colon
[31] = system: HCT-116 colon
[32] = system: NCI-H460 lung
[33] = system: SNB-19 CNS
[34] = system: KM12 colon
[35] = system: UO-31 renal
[36] = system: NCI-H226 lung
[37] = system: OVCAR-8 ovarian
[38] = system: SR leukemia
[39] = system: UACC-257 melanoma
[40] = system: EKVX NSCLC
[41] = system: OVCAR-4 ovarian
[42] = system: K-562 leukemia
[43] = system: SK-MEL-2 melanoma
[44] = system: HS 578T breast
[45] = system: RXF 393 renal
[46] = system: CCRF-CEM leukemia
[47] = system: CAKI-1 renal
[48] = system: NCI-H23 lung
[49] = system: MOLT-4 leukemia
[50] = system: MCF7 breast
[51] = system: SNB-75 CNS
[52] = system: SF-295 CNS
[53] = system: HOP-92 NSCLC
[54] = system: A549 NSCLC
[55] = system: MDA-MB-231 breast
[56] = system: MDA-N
[57] = system: SK-OV-3 ovarian
[58] = system: SN12C renal
[59] = system: A498 renal

## COc1ccc(Cc2nc3cc(Cl)ccc3o2)cc1
[1]
  TGI: > 100 µM
[2]
  TGI: > 100 µM
[3]
  TGI: 76.9 µM
[4]
  TGI: 64.4 µM
[5]
  TGI: > 100 µM
[6]
  TGI: > 100 µM
[7]
  TGI: > 100 µM
[8]
  TGI: > 100 µM
[9]
  TGI: > 100 µM
[10]
  TGI: 56.8 µM
[11]
  TGI: 69 µM
[12]
  TGI: > 100 µM
[13]
  TGI: > 100 µM
[14]
  TGI: > 100 µM
[15]
  TGI: 91.1 µM
[16]
  TGI: > 100 µM
[17]
  TGI: > 100 µM
[18]
  TGI: > 100 µM
[19]
  TGI: > 100 µM
[20]
  TGI: > 100 µM
[21]
  TGI: 31.1 µM
[22]
  TGI: 94.1 µM
[23]
  TGI: > 100 µM
[24]
  TGI: > 100 µM
[25]
  TGI: > 100 µM
[26]
  TGI: > 100 µM
[27]
  TGI: > 100 µM
[28]
  TGI: > 100 µM
[29]
  TGI: 83.9 µM
[30]
  TGI: > 100 µM
[31]
  TGI: > 100 µM
[32]
  TGI: > 100 µM
[33]
  TGI: > 100 µM
[34]
  TGI: > 100 µM
[35]
  TGI: > 100000 nM
[36]
  TGI: > 100 µM
[37]
  TGI: > 100 µM
[38]
  TGI: > 100 µM
[39]
  TGI: 70.6 µM
[40]
  TGI: 78.6 µM
[41]
  TGI: > 100 µM
[42]
  TGI: > 100 µM
[43]
  TGI: 63.8 µM
[44]
  TGI: > 100 µM
[45]
  TGI: 70.2 µM
[46]
  TGI: > 100 µM
[47]
  TGI: > 100 µM
[48]
  TGI: > 100 µM
[49]
  TGI: > 100 µM
[50]
  TGI: > 100 µM
[51]
  TGI: 59.1 µM
[52]
  TGI: > 100 µM
[53]
  TGI: > 100 µM
[54]
  TGI: > 100 µM
[55]
  TGI: > 100 µM
[56]
  TGI: > 100 µM
[57]
  TGI: > 100 µM
[58]
  TGI: > 100 µM

## O=C(CSc1nc2ccc(Cl)cc2c(=O)n1-c1ccccc1)N=Nc1c(O)[nH]c2ccc(F)cc12
[1]
  TGI: 7.1 µM
[2]
  TGI: 4.1 µM
[3]
  TGI: 8.44 µM
[4]
  TGI: 4.11 µM
[5]
  TGI: 8.83 µM
[6]
  TGI: 11.6 µM
[7]
  TGI: 6.82 µM
[8]
  TGI: 3.96 µM
[9]
  TGI: 4.39 µM
[10]
  TGI: 8.73 µM
[11]
  TGI: 5.69 µM
[12]
  TGI: 9.01 µM
[13]
  TGI: 4.19 µM
[14]
  TGI: 15.5 µM
[15]
  TGI: 4.8 µM
[16]
  TGI: 3.22 µM
[17]
  TGI: 3.45 µM
[18]
  TGI: 11.3 µM
[19]
  TGI: 5.43 µM
[20]
  TGI: 3.27 µM
[21]
  TGI: 10.3 µM
[22]
  TGI: 4 µM
[23]
  TGI: 11 µM
[24]
  TGI: 4.45 µM
[25]
  TGI: 3.86 µM
[26]
  TGI: 4.85 µM
[27]
  TGI: 15.2 µM
[28]
  TGI: 7.25 µM
[29]
  TGI: 3.9 µM
[30]
  TGI: 4.81 µM
[31]
  TGI: 3.28 µM
[32]
  TGI: 9.77 µM
[33]
  TGI: 10.5 µM
[34]
  TGI: 11.8 µM
[35]
  TGI: 411 nM
[36]
  TGI: 12.6 µM
[37]
  TGI: 3.33 µM
[39]
  TGI: 10.6 µM
[40]
  TGI: 14.4 µM
[41]
  TGI: 5.65 µM
[42]
  TGI: 11.3 µM
[43]
  TGI: 5.3 µM
[44]
  TGI: > 27 µM
[45]
  TGI: 4.26 µM
[46]
  TGI: 6.34 µM
[47]
  TGI: 11.6 µM
[48]
  TGI: 7.57 µM
[49]
  TGI: 5.56 µM
[50]
  TGI: 4.64 µM
[51]
  TGI: 5.65 µM
[52]
  TGI: 14.9 µM
[53]
  TGI: 8.51 µM
[54]
  TGI: 5.42 µM
[55]
  TGI: 5.82 µM
[59]
  TGI: 9.8 µM
[56]
  TGI: 7.53 µM
[57]
  TGI: 22.3 µM
[58]
  TGI: 4.67 µM
